Numbers after ± are expanded uncertainties.
Conditions: Crystal; DTA

Normal melting temperature [°C]	SMILES
241.00 ± 10	Nc1ccc2[nH]c3ccc(N)cc3c2c1 [3,6-diamino-9H-carbazole]
296.50 ± 10	O=[N+]([O-])c1ccc2[nH]c3ccc([N+](=O)[O-])cc3c2c1 [3,6-dinitro-9H-carbazole]

From the NIST ThermoML archive (doi:10.1016/j.tca.2005.05.013)
